Where a SMILES comes first, the peptide text is derived from it. Where no end group is shown, it is not given here. [ ]: non-standard residue; d: D form. pS = N[C@@H](COP(=O)(O)O)C(=O)O
Tests used:
KPNA4 ARM = target: T1, KPNA4 ARM (Homo sapiens, UniProt O00629); test: FP competition, KPNA4 ARM minor pocket (FITC-NCOR2 probe); format: binding; details: for effect of phosphorylation on the affinity for KPNA4, in words: FP competition with FITC-NCOR2 probe, phosphorylated versus unphosphorylated NCOR1 peptide
T1 construct: O00629; KPNA4; Arm; 68; 487; pETM33/pETM41; Genescript; made in house; host or cells: bacteria (E. coli BL21(DE3) gold is named only for the phage-selection preparations)
T1 sequence (O00629 68-487): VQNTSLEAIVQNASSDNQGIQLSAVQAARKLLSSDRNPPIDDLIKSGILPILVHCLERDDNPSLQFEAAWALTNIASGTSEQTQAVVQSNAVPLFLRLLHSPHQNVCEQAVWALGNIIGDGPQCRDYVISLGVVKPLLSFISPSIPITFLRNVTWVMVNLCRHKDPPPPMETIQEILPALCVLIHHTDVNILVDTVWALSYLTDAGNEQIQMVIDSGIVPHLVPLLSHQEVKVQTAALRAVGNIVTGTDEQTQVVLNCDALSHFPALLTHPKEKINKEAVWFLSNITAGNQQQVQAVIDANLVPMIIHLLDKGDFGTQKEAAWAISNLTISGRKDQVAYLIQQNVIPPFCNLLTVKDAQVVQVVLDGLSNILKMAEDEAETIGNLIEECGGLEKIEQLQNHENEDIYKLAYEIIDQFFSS
From the text: Like other importins, KPNA4 has two distinct NLS‐binding pockets on the surface of an armadillo (ARM) repeat fold (major pocket, ARM 2–4; minor pocket, ARM 6–8; Fig 5B) (Smith et al, [2018]). Bipartite NLSs are usually 17–19 amino acids long and engage both pockets. Monopartite NLSs are short basic stretches, divided into five classes (Kosugi et al, [2009]): class I KR[KR]R or K[KR]RK, class II [PR]xxKR[^DE][KR] (where ^ indicates “not”), class III KRx[WFY]xxAF, class IV [RP]xxKR[KR][^DE], and class V LGKR[KR][WFY]. The class I and class II motifs preferentially interact with the major pocket (Kosugi et al, [2009]). In contrast, class III and class IV NLSs preferentially bind to the minor pocket. Using KPNA4 as a bait against the HD2 P8 library we identified 33 peptides found in 32 proteins. Of the 26 proteins for which information was available, 22 proteins were annotated as having nuclear or nucleolar localization in the UniProt database. To gain additional information we combined the data generated for KPNA4 by screening against the complete P8 HD2 library, with the results generated using two relevant sublibraries (the cytoplasmic and nuclear, and nuclear sublibraries) resulting in a set of 92 peptides containing NLS‐like sequences found in 76 proteins. Using these peptides we could generate consensus motifs that matched four of the previously reported NLS classes (Fig 5A; class I‐IV). […] Three peptides bound only to the major pocket. Eight peptides with class III motif and one KRxH‐containing peptide only bound to the minor pocket. Five peptides outcompeted both probe peptides, which may be explained by the amino acid sequence matching both class II and class III motifs (e.g., 1135‐ PSPKRKL ‐1139 in ZNF532; Fig 5), and possibly by cross specificity of the two binding pockets.

[1] = test system: immobilized GST-tagged bait protein domains; test: ProP-PD phage selections (HD2 P8, sublibraries, HD2 P3, HD1 P8) with NGS and confidence level; format: binding, human
[2] = bait AP2B1_adaptin__P63010_700_937, library HD2, benchmarking set of validated motif instances, TRUE = motif instance recovered in the ProP-PD selection
[3] = bait CALM1_EF-hand__P0DP23_2_149, library HD2, benchmarking set of validated motif instances, TRUE = motif instance recovered in the ProP-PD selection
[4] = HD2 library, bait TSG101_UEV__Q99816_1_145, known motif instance of the benchmarking set found (TRUE) or not found (FALSE) among selected peptides
[5] = HD2 library, bait TNKS_TANK-peptide-bind__O95271_174_649, known motif instance of the benchmarking set found (TRUE) or not found (FALSE) among selected peptides
[6] = bait CRK_SH3_1_P46108_124_198, library HD2, benchmarking set of validated motif instances, TRUE = motif instance recovered in the ProP-PD selection
[7] = HD2 library, bait TLN1_PTB__Q9Y490_309_401, known motif instance of the benchmarking set found (TRUE) or not found (FALSE) among selected peptides
[8] = HD2 library, bait CALM1_EF-hand__P0DP23_2_149, benchmark motif instance, in_library_check FALSE, in_library_coverage 0
[9] = bait PABP-B_PABP__P11940_544_623, HD2 library, whether the validated benchmark motif instance was recovered in the ProP-PD selection (TRUE/FALSE)
[10] = bait ANKRA2_Ank__Q9H9E1_142_313, library HD2, benchmarking set of validated motif instances, TRUE = motif instance recovered in the ProP-PD selection
[11] = library HD2, bait VASP_EVH1__P50552_1_114, validated benchmark motif instance, in_library_check TRUE, TRUE/FALSE = instance recovered in ProP-PD selection

PKRTYDMMEGRVGRAI-NH2 [NCOR2]
IC50 (KPNA4 ARM): 120 nM

GVKRTYSEVYPGQQYL-NH2 [ZMIZ2]
IC50 (KPNA4 ARM): 430 nM

Ac-EISLKRSYESVEGNIK-NH2 [NCOR1 Wt]
IC50 (KPNA4 ARM): 11000 nM

STMKRKHDEIQRSLPV-NH2 [ZBED9]
IC50 (KPNA4 ARM): 2400 nM

CC[C@H](C)[C@H](NC(=O)[C@H](CC(N)=O)NC(=O)CNC(=O)[C@H](CCC(=O)O)NC(=O)[C@@H](NC(=O)[C@H](CO)NC(=O)[C@H](CCC(=O)O)NC(=O)[C@H](Cc1ccc(O)cc1)NC(=O)[C@H](COP(=O)(O)O)NC(=O)[C@H](CCCNC(=N)N)NC(=O)[C@H](CCCCN)NC(=O)[C@H](CC(C)C)NC(=O)[C@H](CO)NC(=O)[C@@H](NC(=O)[C@H](CCC(=O)O)NC(C)=O)[C@@H](C)CC)C(C)C)C(=O)N[C@@H](CCCCN)C(N)=O [NCOR1 pS1246] (Ac-EISLKR[pS]YESVEGNIK-NH2)
IC50 (KPNA4 ARM): 240000 nM | effect of phosphorylation on the affinity for KPNA4, in words (KPNA4 ARM): marked loss of affinity

AGVKRSAAEMYGSVTE-NH2 [HNRNPC]
IC50 (KPNA4 ARM): 500 nM

SLAPVKRTYEQMEFPL-NH2 [ADNP]
IC50 (KPNA4 ARM): 1300 nM

ELKRKLEQEQKLVEVL-NH2 [MKL2]
IC50 (KPNA4 ARM): 36000 nM

PFKRPHSTISDSSTSS-NH2 [PLEKHG4B]
IC50 (KPNA4 ARM): 3600 nM

CC(C)C[C@H](NC(=O)[C@H](CCCCN)NC(=O)[C@H](CCCNC(=N)N)NC(=O)[C@H](CCCCN)NC(=O)[C@@H]1CCCN1C(=O)[C@H](CO)NC(=O)[C@@H]1CCCN1)C(=O)N[C@@H](CCC(=O)O)C(=O)N[C@@H](CCC(=O)O)C(=O)N1CCC[C@H]1C(=O)N[C@H](C(=O)N[C@@H](CC(C)C)C(=O)N[C@@H](CCC(=O)O)C(=O)N[C@@H](Cc1ccccc1)C(=O)N[C@@H](CCCNC(=N)N)C(=O)N1CCC[C@H]1C(N)=O)C(C)C [ZNF532]
IC50 (KPNA4 ARM): 1300 nM

CC[C@H](C)[C@H](NC(=O)[C@H](CC(N)=O)NC(=O)CNC(=O)[C@H](CCC(=O)O)NC(=O)[C@@H](NC(=O)[C@H](CO)NC(=O)[C@H](CCC(=O)O)NC(=O)[C@H](Cc1ccc(O)cc1)NC(=O)[C@H](CO)NC(=O)[C@H](CCCNC(=N)N)NC(=O)[C@H](CCCCN)NC(=O)[C@H](CC(C)C)NC(=O)[C@H](COP(=O)(O)O)NC(=O)[C@@H](NC(=O)[C@H](CCC(=O)O)NC(C)=O)[C@@H](C)CC)C(C)C)C(=O)N[C@@H](CCCCN)C(N)=O [NCOR1 pS1242] (Ac-EI[pS]LKRSYESVEGNIK-NH2)
IC50 (KPNA4 ARM): 31000 nM | effect of phosphorylation on the affinity for KPNA4, in words (KPNA4 ARM): minor effects

GKKRTFDETVSTYVPL-NH2 [TPX2]
IC50 (KPNA4 ARM): 410 nM | Kd (KPNA4 ARM; read-out: KD (Fig 5D)): 47 nM

GGFDTEPDEFSDFDRLRTALPTSG [EPN1]
motif_found [1, 2]: FALSE

KKKATFRAITSTLASSFKRR [GRIN1]
motif_found [1, 3]: FALSE

NYPFTWNTPSAPPGYNIAVK
motif_found [1, 4]: FALSE

GEAWGHSSRTSPLDNV
HD2_nucleus confidence ([1]; bait WDR5_WD_1234567_P61964_21_334, library HD2 P8 nucleus): 4

PYGDDMTVRKQPEGNPKPDIIE
motif_found [1, 5]: FALSE

QASALSFPAPPSRPLPPDPV [ADAM15]
motif_found [1, 6]: FALSE

SLMTDEPGLDNPAYVSSAEDGQ
motif_found [1, 7]: FALSE

AIPWAAFPAVSGVHLS
HD confidence ([1]; bait AP2B1_adaptin__P63010_700_937, HD1 P8 library, confidence level (4 = High, 2-3 = Medium, 1 = Low)): 4 | HD mean counts ([1]; bait AP2B1_adaptin__P63010_700_937, HD1 P8 library, mean NGS counts over replicate selections): 2.25 | HD count proportions ([1]; bait AP2B1_adaptin__P63010_700_937, HD1 P8 library, mean proportion of NGS counts): 0.0009118 | HD2 confidence ([1]; bait AP2B1_adaptin__P63010_700_937, HD2 P8 library, confidence level (4 = High, 2-3 = Medium, 1 = Low)): 3

LQYFRDHINDIIKIQAFIRANKARDDYKTLINA [IQGAP1 836-854]
motif_found [1, 8]: FALSE

PPRLPELAPTAPLPYPAPEA
motif_found [1, 4]: FALSE

SFNPDAQVFVPIGSQD
best_confidence ([1]; bait PABP-B_PABP__P11940_544_623, HD2 library, confidence level (1-4) of best matching selected peptide): 3 | best_specificity ([1]; bait PABP-B_PABP__P11940_544_623, HD2 library, specificity score of best matching selected peptide): 1 | motif_found [1, 9]: TRUE

HTPRLPTLPKRVP,RRAFWHTPRLPTLPKRVPRAGEAR [CCDC8]
motif_found [1, 10]: FALSE

PPPEDFPLPPPPLAGDGDD
motif_found [1, 11]: FALSE

MSSLYPSLEDLKVDQA
HD confidence ([1]; bait PDCD6IP_Alix-V-domain__Q8WUM4_360_702, library HD): 2 | p3_HD2 confidence ([1]; bait PDCD6IP_Alix-V-domain__Q8WUM4_360_702, library HD2 P3): 3 | p3_HD2 count proportions ([1]; bait PDCD6IP_Alix-V-domain__Q8WUM4_360_702, library HD2 P3, mean normalised NGS counts): 0.4191 | p3_HD2 mean counts ([1]; bait PDCD6IP_Alix-V-domain__Q8WUM4_360_702, library HD2 P3, mean raw NGS counts, all selections): 20392.666666666668 | HD2 confidence ([1]; bait PDCD6IP_Alix-V-domain__Q8WUM4_360_702, library HD2 P8): 4 | HD2_nc confidence ([1]; bait PDCD6IP_Alix-V-domain__Q8WUM4_360_702, library HD2 P8 nucleocytoplasmic): 3 | HD2_nc count proportions ([1]; bait PDCD6IP_Alix-V-domain__Q8WUM4_360_702, library HD2 P8 nucleocytoplasmic, mean normalised NGS counts): 0.343 | HD2_nc mean counts ([1]; bait PDCD6IP_Alix-V-domain__Q8WUM4_360_702, library HD2 P8 nucleocytoplasmic, mean raw NGS counts, all selections): 24438.333333333332 | HD count proportions ([1]; bait PDCD6IP_Alix-V-domain__Q8WUM4_360_702, library HD, mean normalised NGS counts): 0.4404 | HD mean counts ([1]; bait PDCD6IP_Alix-V-domain__Q8WUM4_360_702, library HD, mean raw NGS counts, all selections): 2175.8

DTHAKWEQATKLILNY
confidence ([1]; library HD, bait CALM1_EF-hand__P0DP23_2_149, ProP-PD peptides with disease-related mutations): 3

TNPFLNETLQDVQPSP
best_specificity ([1]; library HD2, bait EPS15_EH__P42566_121_215, best matching peptide): 1 | best_confidence ([1]; library HD2, bait EPS15_EH__P42566_121_215, confidence level of best matching peptide (4 High, 2-3 Medium, 1 Low)): 4 | motif_found ([1]; library HD2, bait EPS15_EH__P42566_121_215, whether the validated benchmark motif instance was recovered in the ProP-PD selection (TRUE/FALSE)): TRUE

TPSYSISSTLNPQAPEFILGCTASKIT
motif_found [1, 9]: FALSE

LPRTQPDGTSVPGEPA
best_specificity ([1]; HD2 library, bait TNKS_TANK-peptide-bind__O95271_174_649, best matching selected peptide): 1 | best_confidence ([1]; HD2 library, bait TNKS_TANK-peptide-bind__O95271_174_649, confidence level of best matching selected peptide): 2 | motif_found [1, 5]: TRUE

LDEAFSRLAQSRTNPQ
best_specificity ([1]; bait AP2B1_adaptin__P63010_700_937, library HD2, best matching peptide): 1 | best_confidence ([1]; bait AP2B1_adaptin__P63010_700_937, library HD2, confidence level of best matching peptide (4 = High, 2 or 3 = Medium, 1 = Low)): 2

SFGGGFADF [EPS15]
motif_found [1, 2]: TRUE

KRRWKKNFIAVSAANRFKKISSSGAL [MYLK2]
motif_found [1, 3]: FALSE

NRVAYIEFPPPPPLDADQI
motif_found [1, 11]: FALSE

-----MSLYPSLEDLKVDK [SDCBP 3-7]
motif_found ([1]; HD2 library, bait PDCD6IP_Alix-V-domain__Q8WUM4_360_702, benchmark motif instance, in_library_check FALSE, in_library_coverage 0): FALSE

TVNNCAQDRESPDGSYTEEQSQ
motif_found [1, 5]: FALSE

LKNINSINFDNPVYQKTTEDEV
motif_found [1, 7]: FALSE

FGPPPQVPSRPNRAPPGVPS [DNM1]
motif_found [1, 6]: FALSE

WRVLGLCLLSVGVWGQ
HD2_cytoplasm confidence ([1]; bait CALM1_EF-hand__P0DP23_2_149, HD2 P8 cytoplasm sublibrary, confidence level (4 = High, 2-3 = Medium, 1 = Low)): 3

TDYRPPDDAVFDIITDEELCQ
motif_found ([1]; bait MAP1LC3B_ATG8 (Q9GZQ8 2-119), HD2 library, benchmark motif instance recovered in the ProP-PD selection (TRUE/FALSE)): FALSE

GEYVRVKLQLNPAAREFKPDVKSKPVS
motif_found [1, 9]: FALSE

VVDNSPPPALPPKKRQSAPS [RAPGEF1]
motif_found [1, 6]: FALSE

REMEEKSALIIQKHWRGYRERKNFHQQRQSL [IQCB1 391-407]
motif_found [1, 8]: FALSE

RKTLVSMPPLPGLDLKGSESPE [RFX5]
motif_found [1, 10]: FALSE
